{"source": "paper PMC7758879", "about": "“Tyramine Acts Downstream of Neuronal XBP-1s to Coordinate Inter-tissue UPR^ER Activation and Behavior in C. elegans” (Developmental Cell, 2020)", "molecular_target": "T1, OCTR-1 (Caenorhabditis elegans, UniProt Q7JP62)", "T1 construct": "cDNA in KSM vector, cRNA injected into Xenopus laevis oocytes; co-expressed with mouse GIRK1/GIRK2 as reporter", "T1 sequence (Q7JP62 1-406)": "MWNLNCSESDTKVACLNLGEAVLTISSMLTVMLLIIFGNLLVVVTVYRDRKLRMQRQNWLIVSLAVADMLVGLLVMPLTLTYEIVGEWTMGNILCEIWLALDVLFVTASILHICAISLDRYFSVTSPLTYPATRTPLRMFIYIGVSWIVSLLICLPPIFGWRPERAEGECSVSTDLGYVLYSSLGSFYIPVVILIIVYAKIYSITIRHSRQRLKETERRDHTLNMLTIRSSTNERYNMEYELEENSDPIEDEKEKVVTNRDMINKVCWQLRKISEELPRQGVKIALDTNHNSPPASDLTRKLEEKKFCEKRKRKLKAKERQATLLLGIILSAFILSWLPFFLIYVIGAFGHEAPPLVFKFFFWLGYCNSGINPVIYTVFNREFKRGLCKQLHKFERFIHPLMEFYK", "experiment": "two-electrode voltage clamp, GIRK1/[…] current, Xenopus oocytes", "format": "cell-based", "data": [{"smiles": "NCCc1ccc(O)cc1", "note": "[Tyr, tyramine]", "values": [{"measurement": "EC50", "result": 12.9, "unit": "µM"}]}, {"smiles": "NC[C@H](O)c1ccc(O)cc1", "note": "[Oct, octopamine]", "values": [{"measurement": "EC50", "result": 0.114, "unit": "µM"}]}]}
